These results are taken from US20230355670A1, “Methods of activating cytotoxic leukocytes using PTP1B and PTPN2 inhibitors” (Monash University, priority 2019, published 2023).

SMILES strings stand for the structures.

Test [1] concerns HER-2-E0771 mammary tumour cells. Nature of the test: Tumour growth of HER-2-E0771 mammary tumours in HER-2 TG mice after adoptive transfer of HER-2 CAR T cells, with MSI-1436 treatment. It is filed as in vivo. As to conditions: MSI-1436 5 mg/kg intraperitoneally on days 1, 4, 7, 10, 13, 16 and 19 post adoptive transfer of total 20×10^6 HER-2 CAR T cells; versus saline; no IL-2; female HER-2 TG mice. The method, then:
HER-2-E0771 mammary tumour cells (2×10^5) were injected into the fourth inguinal mammary fat pads of female HER-2 TG mice. Seven days after tumour injection HER-2 TG mice received total body irradiation (4 Gy) followed by the adoptive transfer of total 20×10^6 HER-2 CAR T cells (=6×10^6 viable mCherry^+HER2 CAR^+CD8^+CD44^hiCD62L^hi T cells) generated from Ptp1b^fl/fl versus Lck-Cre;Ptp1b^fl/fl splenocytes; mice were not administered IL-2. Mice were treated with PTP1B specific allosteric inhibitor MSI-1436 (5 mg/kg intraperitoneally) or saline on days 1, 4, 7, 10, 13, 16 and 19 post adoptive transfer and tumour growth was monitored. Representative results (means±SEM) from at least two independent experiments are shown. Significance was determined using 2-way ANOVA Test; *p<0.05 ****p<0.0001.
HER-2-E0771 mammary tumour cells (2×10^5) were injected into the fourth inguinal mammary fat pads of female HER-2 TG mice. […] Mice were treated with PTP1B specific allosteric inhibitor MSI-1436 (5 mg/kg intraperitoneally) or saline on days 1, 4, 7, 10, 13, 16 and 19 post adoptive transfer and tumour growth was monitored. […] Significance was determined using 2-way ANOVA Test; *p<0.05, ****p<0.0001.

Test [2] has the same test system. The test is described as follows: Tumour growth of HER-2-E0771 mammary tumours in HER-2 TG mice after adoptive transfer of control or Ptpn2-/- HER-2 CAR T cells, with MSI-1436 treatment. Format: in vivo. As to conditions: MSI-1436 5 mg/kg intraperitoneally on days 1, 4 and 7 post adoptive transfer of total 5×10^6 control or Ptpn2-/- HER-2 CAR T cells; versus saline; female HER-2 TG mice. The method, then:
HER-2-E0771 mammary tumour cells (2×10^5) were injected into the fourth inguinal mammary fat pads of female HER-2 TG mice. Seven days after tumour injection HER-2 TG mice received total body irradiation (4 Gy) followed by the adoptive transfer of total 5×10^6 HER-2 CAR T cells (=0.8×10^6 viable mCherry^+HER-2 CAR^+CD8^+CD44^hiCD62L^hi T cells) control (ctrl) or Ptpn2^−/− HER-2 CAR CD8 T cells (PTPN2 had been deleted by CRISPR-RNP). HER-2 mice were treated with MSI-1436 (5 mg/kg intraperitoneally) or saline on days 1, 4, and 7 post adoptive transfer and tumour growth was monitored. Significance in was determined using 2-way ANOVA Test; ****p<0.0001.

On to `CC(C)[C@@H](CC[C@@H](C)[C@H]1CC[C@H]2[C@@H]3[C@H](O)C[C@H]4C[C@@H](NCCCNCCCCNCCCN)CC[C@]4(C)[C@H]3CC[C@]12C)OS(=O)(=O)O` [MSI-1436, Trodusquemine], for which, in test [1], the “tumour growth (tumour-specific activity of HER2 CAR T cells in vivo)” value was “Enhances the Tumour-Specific Activity of HER2 CAR T Cells In Vivo”. The “tumour growth (activity of CAR T cells in vivo)” value in test [2] was “‘supercharges’ CAR T cells in vivo”.
